# Biological target: T1, human RXFP1 (Homo sapiens, UniProt Q9HBX9)
# T1 construct: expressed in transfected cells
# T1 sequence (Q9HBX9 1-757): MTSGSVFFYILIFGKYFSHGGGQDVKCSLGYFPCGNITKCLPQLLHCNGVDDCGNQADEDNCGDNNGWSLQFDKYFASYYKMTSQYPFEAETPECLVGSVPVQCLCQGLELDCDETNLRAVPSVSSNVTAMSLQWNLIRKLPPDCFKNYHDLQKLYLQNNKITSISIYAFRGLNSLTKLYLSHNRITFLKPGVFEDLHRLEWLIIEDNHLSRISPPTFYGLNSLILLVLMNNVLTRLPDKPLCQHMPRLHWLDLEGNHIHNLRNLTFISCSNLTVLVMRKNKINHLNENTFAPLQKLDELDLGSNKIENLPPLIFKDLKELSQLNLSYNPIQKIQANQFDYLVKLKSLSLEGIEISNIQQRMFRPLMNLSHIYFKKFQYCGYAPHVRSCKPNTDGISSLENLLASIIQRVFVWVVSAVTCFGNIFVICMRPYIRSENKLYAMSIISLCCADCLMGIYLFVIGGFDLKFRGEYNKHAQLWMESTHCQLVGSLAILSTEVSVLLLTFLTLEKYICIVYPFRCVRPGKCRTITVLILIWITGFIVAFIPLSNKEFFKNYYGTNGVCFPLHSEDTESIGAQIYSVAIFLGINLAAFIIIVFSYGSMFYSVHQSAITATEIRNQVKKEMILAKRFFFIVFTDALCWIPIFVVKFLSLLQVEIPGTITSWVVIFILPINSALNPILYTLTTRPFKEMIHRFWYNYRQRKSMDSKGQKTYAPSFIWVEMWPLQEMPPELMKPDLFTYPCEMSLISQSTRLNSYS
# Assay: hRXFP1 HEK293 cAMP assay (HTRF)
# Assay type: cell-based
# Conditions: HEK293 cells stably expressing human RXFP1; 30 min at rt; intracellular cAMP by HTRF
# Protocol: RXFP1 Cyclic Adenosine Monophosphate (cAMP) Assays. Human embryonic kidney cells 293 (HEK293) cells and HEK293 cells stably expressing human RXFP1, were cultured in MEM medium supplemented with 10% qualified FBS, and 300 μg/ml hygromycin (Life Technologies). Cells were dissociated and suspended in assay buffer. The assay buffer was HBSS buffer (with calcium and magnesium) containing 20 mM HEPES, 0.05% BSA, and 0.5 mM IBMX. Cells (3000 cells per well, except 1500 cell per well for HEK293 cells stably expressing human RXFP1) were added to 384-well Proxiplates (Perkin-Elmer). Cells were immediately treated with test compounds in DMSO (2% final) at final concentrations in the range of 0.010 nM to 50 μM. Cells were incubated for 30 min at rt. The level of intracellular cAMP was determined using the HTRF HiRange cAMP assay reagent kit (Cisbio) according to manufacturer's instructions. Solutions of cryptate conjugated anti-cAMP and d2 fluorophore-labelled cAMP were made in a supplied lysis buffer separately. Upon completion of the reaction, the cells were lysed with equal volume of the d2-cAMP solution and anti-cAMP solution. After a 1 h rt incubation, time-resolved fluorescence intensity was measured using the Envision (Perkin-Elmer) at 400 nm excitation and dual emission at 590 nm and 665 nm. A calibration curve was constructed with an external cAMP standard at concentrations ranging from 2.7 μM to 0.1 pM by plotting the fluorescent intensity ratio from 665 nm emission to the intensity from the 590 nm emission against cAMP concentrations. The potency and activity of a compound to […] cAMP production was then determined by fitting to a 4-parametric logistic equation from a plot of cAMP level versus compound concentrations.
# The examples disclosed below were tested in the human RXFP1 (hRXFP1) HEK293 cAMP assay described above and found to have agonist activity.
row,SMILES,EC50 [nM]
1,"COc1ccc(N2CCOC(CC(C)(C)O)C2)cc1C(=O)Nc1c(C(=O)Nc2ccc(F)c(C(F)(F)F)c2)sc2cc(C(F)(F)F)ccc12 (single isomer, unassigned) [Example 228, N-(4-fluoro-3-(trifluoromethyl)phenyl)-3-(5-(2-(2-hydroxy-2-methylpropyl)morpholino)-2-methoxy-benzamido)-6-(trifluoromethyl) benzo[b] thiophene-2-carboxamide]",1540
2,"COc1ccc(-c2cccc(S(=O)(=O)N(C)C)c2)cc1C(=O)Nc1c(C(=O)Nc2ccc(F)c(C(F)(F)F)c2)sc2cc(C(F)(F)F)ccc12 [Example 119, 3-(3′-(N,N-dimethyl-sulfamoyl)-4-methoxy-[1,1′-biphenyl]-3-carboxamido)-N-(4-fluoro-3-(trifluoromethyl)phenyl)-6-(trifluoromethyl) benzo[b] thiophene-2-carboxamide]",282
3,"COc1ccc(C2=NOC3(CCOC3=O)C2)cc1C(=O)Nc1c(C(=O)Nc2ccc(F)c(C(F)(F)F)c2)sc2cc(C(F)(F)F)ccc12 (centres unmarked) [Example 251, N-(4-fluoro-3-(trifluoromethyl)phenyl)-3-(2-methoxy-5-(6-oxo-1,7-dioxa-2-azaspiro[4.4]non-2-en-3-yl)benzamido)-6-(trifluoromethyl) benzo[b] thiophene-2-carboxamide]",222
4,"COc1ccc(C2=NOC3(CCN(C(=O)C(C)(C)CO)CC3)C2)cc1C(=O)Nc1c(C(=O)Nc2ccc(F)c(C(F)(F)F)c2)sc2cc(C(F)(F)F)ccc12 [Example 269, N-(4-fluoro-3-(trifluoromethyl)phenyl)-3-(5-(8-(3-hydroxy-2,2-dimethyl-propanoyl)-1-oxa-2,8-diazaspiro[4.5]dec-2-en-3-yl)-2-methoxy-benzamido)-6-(trifluoromethyl) benzo[b] thiophene-2-carboxamide]",737
5,"COc1ccc(C2CC2C(=O)O)cc1C(=O)Nc1c(C(=O)Nc2ccc(F)c(C(F)(F)F)c2)sc2cc(C(F)(F)F)ccc12 (single isomer, unassigned) [Example 48, 2-(3-((2-((4-fluoro-3-(trifluoromethyl)phenyl)carbamoyl)-6-(trifluoromethyl)benzo[b]thiophen-3-yl)carbamoyl)-4-methoxyphenyl) cyclopropane-1-carboxylic acid]",58.4
6,"COc1ccc(C(=O)N2CC[C@@H](O)C2)cc1C(=O)Nc1c(C(=O)Nc2ccc(F)c(C(F)(F)F)c2)sc2cc(C3CC3)ncc12 [Example 195, (R)-6-cyclopropyl-N-(4-fluoro-3-(trifluoromethyl)phenyl)-3-(5-(3-hydroxy-pyrrolidine-1-carbonyl)-2-methoxy-benzamido) thieno[3,2-c] pyridine-2-carboxamide]",910
7,"COc1ccc(C23CCC(C(C)(C)O)(CC2)CC3)cc1C(=O)Nc1c(C(=O)Nc2ccc(F)c(C(F)(F)F)c2)sc2cc(C(F)(F)F)ccc12 [Example 40, N-(4-fluoro-3-(trifluoromethyl)phenyl)-3-(5-(4-(2-hydroxypropan-2-yl)bicyclo [2.2.2]octan-1-yl)-2-methoxybenzamido)-6-(trifluoromethyl) benzo[b]thiophene-2-carboxamide]",220
8,"COc1ccc(-c2cc(C(=O)O)ccc2F)cc1C(=O)Nc1c(C(=O)Nc2ccc(F)c(C(F)(F)F)c2)sc2cc(C)ccc12 [Example 215, 6-fluoro-3′-((2-((4-fluoro-3-(trifluoromethyl)phenyl)carbamoyl)-6-methylbenzo[b]thiophen-3-yl)carbamoyl)-4′-methoxy-[1,1′-biphenyl]-3-carboxylic acid]",1430
9,"COc1ccc(C2=NOC(CO)C2)cc1C(=O)Nc1c(C(=O)Nc2ccc(F)c(C(F)(F)F)c2)sc2cc(C(F)(F)F)ccc12 (single isomer, unassigned) [Example 250, N-(4-fluoro-3-(trifluoromethyl)phenyl)-3-(5-(5-(hydroxymethyl)-4,5-dihydroisoxazol-3-yl)-2-methoxy-benzamido)-6-(trifluoromethyl) benzo[b] thiophene-2-carboxamide]",280
10,"COc1ccc(C2CCN(C(=O)C(C)(C)O)C2)cc1C(=O)Nc1c(C(=O)Nc2ccc(F)c(C(F)(F)F)c2)sc2cc(C(F)(F)F)ccc12 (centres unmarked) [Example 140, N-(4-fluoro-3-(trifluoromethyl)phenyl)-3-(5-(1-(2-hydroxy-2-methylpropanoyl)pyrrolidin-3-yl)-2-methoxy-benzamido)-6-(trifluoromethyl) benzo[b] thiophene-2-carboxamide]",97.9
11,"COC(=O)C1CC(c2ccc(OC)c(C(=O)Nc3c(C(=O)Nc4ccc(F)c(C(F)(F)F)c4)sc4cc(C(F)(F)F)ccc34)c2)=NO1 (centres unmarked) [Example 57, methyl 3-(3-((2-((4-fluoro-3-(trifluoromethyl)phenyl)carbamoyl)-6-(trifluoromethyl)benzo[b]thiophen-3-yl)carbamoyl)-4-methoxyphenyl)-4,5-dihydroisoxazole-5-carboxylate]",636
12,"COc1ccc(C2=NOC3CN(CC(C)(C)O)CC23)cc1C(=O)Nc1c(C(=O)Nc2ccc(F)c(C(F)(F)F)c2)sc2cc(C(F)(F)F)ccc12 (single isomer, unassigned) [Example 53, N-(4-fluoro-3-(trifluoromethyl)phenyl)-3-(5-(5-(2-hydroxy-2-methylpropyl)-3a, 5,6,6a-tetrahydro-4H-pyrrolo[3,4-d]isoxazol-3-yl)-2-methoxybenzamido)-6-(trifluoromethyl)benzo[b]thiophene-2-carboxamide]",71
13,"COc1ccc(C2=NOC3(CCN(C(=O)CO)CC3)C2)cc1C(=O)Nc1c(C(=O)Nc2ccc(F)c(C(F)(F)F)c2)sc2cc(C(F)(F)F)ccc12 [Example 271, N-(4-fluoro-3-(trifluoromethyl)phenyl)-3-(5-(8-(2-hydroxyacetyl)-1-oxa-2,8-diazaspiro[4.5]dec-2-en-3-yl)-2-methoxy-benzamido)-6-(trifluoromethyl) benzo[b] thiophene-2-carboxamide]",379
14,"COc1ccc(N2CCCCS2(=O)=O)cc1C(=O)Nc1c(C(=O)Nc2ccc(F)c(C(F)(F)F)c2)sc2cc(C(F)(F)F)ccc12 [Example 10, 3-(5-(1,1-dioxido-1,2-thiazinan-2-yl)-2-methoxybenzamido)-N-(4-fluoro-3-(trifluoromethyl)phenyl)-6-(trifluoromethyl)benzo[b]thiophene-2-carboxamide]",111
15,"COc1ccc(CCCO)cc1C(=O)Nc1c(C(=O)NC2CCCC(C(F)(F)F)C2)sc2cc(C(F)(F)F)ccc12 (single isomer, unassigned) [Example 44, 3-(5-(3-hydroxypropyl)-2-methoxybenzamido)-6-(trifluoromethyl)-N-(3-(trifluoromethyl)cyclohexyl) benzo[b]thiophene-2-carboxamide]",3740
16,"COc1ccc(C2CCC(NCC(=O)O)CC2)cc1C(=O)Nc1c(C(=O)Nc2ccc(F)c(C(F)(F)F)c2)sc2cc(C(F)(F)F)ccc12 (single isomer, unassigned) [Example 211, (4-(3-((2-((4-fluoro-3-(trifluoromethyl)phenyl)carbamoyl)-6-(trifluoromethyl)benzo[b]thiophen-3-yl)carbamoyl)-4-methoxyphenyl)cyclohexyl) glycine]",2770
17,"COC(=O)C1CN(c2ccc(OC)c(C(=O)Nc3c(C(=O)Nc4ccc(F)c(C(F)(F)F)c4)sc4cc(C(F)(F)F)ccc34)c2)C1 [Example 1, Methyl 1-(3-((2-((4-fluoro-3-(trifluoromethyl)phenyl)carbamoyl)-6-(trifluoromethyl)benzo[b]thiophen-3-yl)carbamoyl)-4-methoxyphenyl)azetidine-3-carboxylate]",631
